Data as given in US20080254487A1, “Connective Tissue Growth Factor Signaling” (FIBROGEN, INC., priority 2004, published 2008).

T1: CTGF and betaglycan (Homo sapiens, UniProt P29279)
T1 sequence (P29279 27-349): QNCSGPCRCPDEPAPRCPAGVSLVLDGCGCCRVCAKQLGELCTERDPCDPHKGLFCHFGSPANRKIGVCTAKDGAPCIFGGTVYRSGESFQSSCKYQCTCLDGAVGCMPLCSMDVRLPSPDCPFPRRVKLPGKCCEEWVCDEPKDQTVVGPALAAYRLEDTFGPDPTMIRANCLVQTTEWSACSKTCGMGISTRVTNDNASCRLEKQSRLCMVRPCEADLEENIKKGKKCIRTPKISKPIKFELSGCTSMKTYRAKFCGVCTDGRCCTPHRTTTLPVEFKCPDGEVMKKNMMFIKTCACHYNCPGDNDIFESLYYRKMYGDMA

T2: CTGF (Homo sapiens, UniProt P29279)
T2 sequence (P29279 27-349): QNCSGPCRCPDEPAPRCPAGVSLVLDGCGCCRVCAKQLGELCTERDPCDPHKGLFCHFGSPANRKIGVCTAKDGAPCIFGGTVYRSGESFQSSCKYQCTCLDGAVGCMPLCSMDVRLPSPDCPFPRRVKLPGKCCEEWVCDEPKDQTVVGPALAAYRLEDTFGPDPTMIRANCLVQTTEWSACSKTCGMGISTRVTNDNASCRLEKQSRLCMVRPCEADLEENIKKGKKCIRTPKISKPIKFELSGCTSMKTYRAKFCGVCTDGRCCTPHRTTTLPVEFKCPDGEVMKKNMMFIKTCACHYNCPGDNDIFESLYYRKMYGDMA

T3: recombinant human CTGF (rhCTGF) (Homo sapiens, UniProt P29279)
T3 construct: in the presence of no CTGF, full-length CTGF, the N-terminal half of CTGF (NH2 fragment); made in house; host or cells: Hi5 insect cells infected with baculovirus (pFASTBAC1; virus generated in Sf9)
T3 sequence (P29279 27-349): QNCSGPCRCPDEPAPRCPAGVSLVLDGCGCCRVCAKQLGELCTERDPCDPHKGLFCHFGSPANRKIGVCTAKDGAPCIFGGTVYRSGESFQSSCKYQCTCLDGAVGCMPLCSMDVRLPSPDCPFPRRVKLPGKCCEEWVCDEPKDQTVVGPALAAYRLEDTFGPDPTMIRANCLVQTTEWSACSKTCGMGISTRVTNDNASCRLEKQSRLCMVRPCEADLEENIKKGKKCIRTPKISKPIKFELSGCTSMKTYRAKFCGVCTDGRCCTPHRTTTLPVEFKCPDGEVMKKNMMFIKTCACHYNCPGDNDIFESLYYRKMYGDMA

B1: sBetaglycan: soluble betaglycan (TGF-β type III receptor), a heparan sulfate proteoglycan (protein, UniProt Q03167 21-787, looked up)
extracellular domain: GPEPGALCELSPVSASHPVQALMESFTVLSGCASRGTTGLPQEVHVLNLRTAGQGPGQLQREVTLHLNPISSVHIHHKSVVFLLNSPHPLVWHLKTERLATGVSRLFLVSEGSVVQFSSANFSLTAETEERNFPHGNEHLLNWARKEYGAVTSFTELKIARNIYIKVGEDQVFPPKCNIGKNFLSLNYLAEYLQPKAAEGCVMSSQPQNEEVHIIELITPNSNPYSAFQVDITIDIRPSQEDLEVVKNLILILKCKKSVNWVIKSFDVKGSLKIIAPNSIGFGKESERSMTMTKSIRDDIPSTQGNLVKWALDNGYSPITSYTMAPVANRFHLRLENNAEEMGDEEVHTIPPELRILLDPGALPALQNPPIRGGEGQNGGLPFPFPDISRRVWNEEGEDGLPRPKDPVIPSIQLFPGLREPEEVQGSVDIALSVKCDNEKMIVAVEKDSFQASGYSGMDVTLLDPTCKAKMNGTHFVLESPLNGCGTRPRWSALDGVVYYNSIVIQVPALGDSSGWPDGYEDLESGDNGFPGDMDEGDASLFTRPEIVVFNCSLQQVRNPSSFQEQPHGNITFNMELYNTDLFLVPSQGVFSVPENGHVYVEVSVTKAEQELGFAIQTCFISPYSNPDRMSHYTIIENICPKDESVKFYSPKRVHFPIPQADMDKKRFSFVFKPVFNTSLLFLQCELTLCTKMEKHPQKLPKCVPPDEACTSLDASIIWAMMQNKKTFTKPLAVIHHEAESKEKGPSMKEPNPISPPIFHGLDTLTV
modifications: extracellular domain
notes: soluble betaglycan (TGF-β type III receptor), a heparan sulfate proteoglycan

Tests used:
CTGF and betaglycan = target: T1, CTGF and betaglycan; assay: Co-immunoprecipitation assay, binding between CTGF and betaglycan; settings: soluble betaglycan, bFGF and CTGF mixed; dose-sensitive; FIG. 9
Procedure: (§1) Co-immunoprecipitation is a purification procedure used to determine if two different molecules, e.g., proteins, directly interact. Basically, an antibody specific to a protein of interest is added to a cell lysis under conditions suitable for antibody binding to the protein. The antibody-protein complex is then collected, e.g., using protein-G sepharose, which binds most antibodies. Any molecules that are bound to the precipitated protein will also be collected. Identification of proteins can be determined by, e.g., western blot or by direct sequencing of the purified protein(s). Several commercial kits, e.g., the PROFOUND co-immunoprecipitation kit from Pierce Biotechnology, Inc. (Rockford Ill.) are also available.
(§2) In the present examples, co-immunoprecipitations were performed as follows. The surface of intact cells was iodinated with ^125I prior to lysing cells and fractionating on a CTGF affinity column. Alternatively, CTGF and labeled cells were incubated for a period sufficient for CTGF binding to cells, and then cells were lysed and immunoprecipitations were performed using anti-CTGF specific antibodies. Antibody complexes were collected from the lysate using protein-G sepharose, and pelleted by centrifugation. Proteins eluted from affinity columns or collected by immunoprecipitation were analyzed by fractionation on SDS-PAGE and visualized by autoradiography. […]

CTGF [1] = target: T2, CTGF; assay: Co-immunoprecipitation assay, interaction with CTGF; assay type: binding; settings: FIG. 8A, FIG. 9
Procedure: as §1, §2

[2] = target: T3, recombinant human CTGF (rhCTGF); assay: Cell adhesion assay (CTGF-mediated cell adhesion); assay type: cell-based; settings: HFF cells; increasing concentrations added to the adhesion reaction; FIGS. 3C, 6A, 7A
Procedure: Methods for measuring cell adhesion mediated by CTGF are generally known to those skilled in the art. (See, e.g., Babic et al. (1999) Mol Cell Biol 19:2958-296; Ball et al. (2003) J Endocrinol 176:R1-7.) In some experiments, wells of a MAXISORP plate (Nunc Nalgene) were treated with 10 μg/ml recombinant human CTGF (rhCTGF) to directly adsorb CTGF to the well. Alternatively, wells were coated with a human monoclonal antibody specific for human CTGF, and then were blocked with bovine serum albumin to prevent non-specific binding. 2 μg/1 ml rhCTGF or fragments thereof, or a vehicle control was added to each well. Plates were then washed 3 times with PBS, cells were added at a seed density of approximately 8×10^3 cells/well, and plates were incubated for 45 minutes at 37° C. Wells were then washed twice, and the number of cells retained in each well was measured using a CYQUANT cell proliferation assay kit (Molecular Probes, Inc., Eugene Oreg.). Alternatively, attached cells were lysed in 2% Triton and lactate dehydrogenase (LDH) activity was measured using a cytotoxicity detection (LDH) kit (Roche Diagnostics Corp., Chicago, Ill.). LDH levels were compared against a standard curve generated using known numbers of cells, and results of experiment were expressed as numbers of attached cells per well.
CTGF has been described as a heparin-binding growth factor. As cells may carry a variety of proteoglycan moieties on their surface, e.g., heparan sulfate, chondroitin sulfate, etc. (see FIG. 3A), the following experiment was conducted to determine the specificity of CTGF for such moieties. The cell adhesion and cell binding assays were conducted as described in Examples 3.1 and 3.2, respectively, except prior to seeding cells were treated for 1 hour at 37° C. with either vehicle, 4 units/ml heparinase I, or 2 units/ml chondroitinase ABC.
To further examine the requirement for heparan sulfate proteoglycans in CTGF-mediated cell adhesion, adhesion was measured in the presence of increasing amounts of heparin. […]

CTGF [3] = target: T2, CTGF; assay: CTGF displacement assay (endogenous CTGF displaced from cells, sandwich ELISA); assay type: cell-based; set-up: measured displacement of CTGF endogenously produced by cells; endogenous in cells; host or cells: HLF and MG63 cells (constitutive or TGF-β2-induced expression); settings: HLF or MG63 cells; titrated amounts of sulfated polysaccharides; FIGS. 6B, 7B
Procedure: Alternatively, cell binding was measured using a CTGF displacement assay. The displacement assay used in the present examples measured displacement of CTGF endogenously produced by cells. HLF and MG63 cells were separately used in the displacement assay as follows. In all experiments, cells were plated in 96-well tissue culture plates at a seed density of 2.5×10^4 cells/well. Cells were incubated for approximately 24 hours at 37° C., and then medium was replaced with a serum-free medium containing titrated amounts of sulfated polysaccharides (glycosaminoglycans, GAGs). In some experiments, constitutive CTGF expression accounted for the displaced CTGF, whereas in other experiments additional levels of CTGF were induced by addition of TGF-β2 in culture media 30 minutes prior to change of media and addition of GAGs. MG63 cells were incubated for either 3 or 6 hrs, and HLF cells were incubated for 20 hrs, at 37° C., and then conditioned media was assayed for N-fragment and full-length CTGF using a sandwich ELISA assay. (See International Publication No. WO 03/024308.)
To determine size requirements for modulation of CTGF-mediated cell adhesion and cell binding, heparin moieties containing differing saccharide subunit number were examined. Polysaccharide lengths tested ranged from 10 to approximately 50 saccharides, and experiments were carried out as described in examples 3.1 and 3.3. […]

CTGF [4] = target: T2, CTGF; assay: CTGF binding assay (binding of CTGF to cells, FACS); assay type: cell-based; settings: increasing concentrations of heparin or modified heparin, FIG. 4
Procedure: Methods for measuring binding of CTGF to cells are generally known to those skilled in the art. (See, e.g., Nishida (1998) Biochem Biophys Res Commun 247:905-909; Segarini et al. (2001) J Biol Chem 276:40659-40667.) In one method used herein, cells were suspended in media containing CTGF under conditions suitable for binding of CTGF to cellular targets, e.g., incubation at 4° C. Cells may optionally be treated prior to or concurrently with CTGF exposure; for example, cells may be treated with enzymes that alter cell surface moieties, molecules that compete competitively or non-competitively with CTGF for binding to cells, etc. Following incubation, cells were washed and then incubated with fluorescently-labeled anti-CTGF antibody. The level of CTGF binding was then measured using a FACS apparatus.
To determine the specificity of sulfation and charge distribution for CTGF-mediated cell adhesion and cell binding, experiments as described in Examples 3.1, 3.2, and 3.3, were performed with the following modification. Combination of HFF cells with CTGF was accompanied by addition of increasing concentrations of heparin that was modified to contain differing amounts of sulfation and/or acetylation.

Molecule | binding between CTGF and betaglycan in the presence of the factor (CTGF and betaglycan) | interaction with CTGF (co-immunoprecipitation with anti-CTGF antibodies) (CTGF [1]) | CTGF-mediated (CTGF-dependent) cell adhesion, effect of added polysaccharide [2] | binding of CTGF to cells (displacement assay) (CTGF [3]) | binding of CTGF to HFF, inhibition (CTGF [4])
bFGF: basic fibroblast growth factor | adversely influenced | clear interaction |  |  | 
chondroitin sulfate [naturally sulfated chondroitin] |  |  | no modulation | no modulation | 
dermatan sulfate [naturally sulfated dermatan] |  |  | no modulation | no modulation | 
heparin |  |  | inhibited |  | substantially inhibit
B1 |  | dose-sensitive interaction |  |  | 
